# From ChEMBL document CHEMBL6177973, “A Novel Compound 3a-M1, from Metabolites of Sinomenine Derivative 3a, Exerts Potent Anti-Aplastic Anemia Activity via IP3R/ORAI-Mediated CTL Ferroptosis” (J Med Chem, 2025)
# Active and inactive are the calls of the source. No cut-off for these calls is given here.
# How the values were obtained:
# [1] = Drug metabolism in mouse liver assessed as cinnamic acid metabolite formation at 50 mg/kg, po measured for 0.083 to 8 hrs by HPLC analysis; format: ADME, organism-based; details: in vivo, time 0.083-8 hrs
# [2] = Drug metabolism in mouse spleen assessed as cinnamic acid metabolite formation at 50 mg/kg, po measured for 0.083 to 8 hrs by HPLC analysis; format: ADME, organism-based; details: in vivo, time 0.083-8 hrs
# [3] = Stability in mouse plasma at 37 degreeC; format: ADME, cell-free
# [4] = Drug metabolism in mouse bone marrow assessed as cinnamic acid metabolite formation at 50 mg/kg, po measured for 0.083 to 8 hrs by HPLC analysis; format: ADME, organism-based; details: in vivo, time 0.083-8 hrs
# [5] = Drug metabolism in Sprague-Dawley rat plasma assessed as (4bR,9S)-1-(hydroxymethyl)-3,7-dimethoxy-11-methyl-6-oxo-6,8a,9,10-tetrahydro-5H-9,4b-(epiminoethano)phenanthren-4-yl cinnamate metabolite formation at 50 mg/kg, po measured for 24 hrs by HPLC analysis; format: ADME, organism-based; details: in vivo
# [6] = Drug metabolism in mouse blood assessed as cinnamic acid metabolite formation at 50 mg/kg, po measured for 0.083 to 8 hrs by HPLC analysis; format: ADME, organism-based; details: in vivo, time 0.083-8 hrs
# [7] = Oral bioavailability in Sprague-Dawley rat at 50 mg/kg measured for 0.083 to 24 hrs by HPLC analysis; format: ADME, organism-based; details: in vivo, time 0.083-24 hrs
# [8] = Stability in mouse liver assessed as compound remaining at 50 mg/kg, po measured for 0.083 to 8 hrs by HPLC analysis; format: ADME, organism-based; details: in vivo, time 0.083-8 hrs
# [9] = Drug metabolism in mouse kidney assessed as cinnamic acid metabolite formation at 50 mg/kg, po measured for 0.083 to 8 hrs by HPLC analysis; format: ADME, organism-based; details: in vivo, time 0.083-8 hrs
# Mus musculus [10] = test: Anti-aplastic anemia activity in BALB/c mouse model of immune-mediated bone marrow failure assessed as increase in animal survival at 10 mg/kg, po treated for 14 days; format: functional, organism-based; details: time 14.0 day
# [11] = Drug metabolism in Sprague-Dawley rat plasma assessed as (4bR,9S)-1-(hydroxymethyl)-3,7-dimethoxy-11-methyl-6-oxo-6,8a,9,10-tetrahydro-5H-9,4b-(epiminoethano)phenanthren-4-yl cinnamate metabolite formation at 5 mg/kg, iv measured for 24 hrs by HPLC analysis; format: ADME, organism-based; details: in vivo
# [12] = Drug metabolism in mouse lymph node assessed as (4bR,9S)-1-(hydroxymethyl)-3,7-dimethoxy-11-methyl-6-oxo-6,8a,9,10-tetrahydro-5H-9,4b-(epiminoethano)phenanthren-4-yl cinnamate metabolite formation at 50 mg/kg, po measured for 0.083 to 8 hrs by HPLC analysis; format: ADME, organism-based; details: in vivo, time 0.083-8 hrs
# [13] = Drug metabolism in mouse spleen assessed as (4bR,9S)-1-(hydroxymethyl)-3,7-dimethoxy-11-methyl-6-oxo-6,8a,9,10-tetrahydro-5H-9,4b-(epiminoethano)phenanthren-4-yl cinnamate metabolite formation at 50 mg/kg, po measured for 0.083 to 8 hrs by HPLC analysis; format: ADME, organism-based; details: in vivo, time 0.083-8 hrs
# [14] = Drug metabolism in mouse bone marrow assessed as (4bR,9S)-1-(hydroxymethyl)-3,7-dimethoxy-11-methyl-6-oxo-6,8a,9,10-tetrahydro-5H-9,4b-(epiminoethano)phenanthren-4-yl cinnamate metabolite formation at 50 mg/kg, po measured for 0.083 to 8 hrs by HPLC analysis; format: ADME, organism-based; details: in vivo, time 0.083-8 hrs
# IEC-6 = test: Induction of ferroptosis in rat IEC-6 cells assessed as increase in intracellular Ca2+ concentration at 10 uM by Fluo-4 AM dye based analysis; format: functional, cell-based
# CTLL-2 [15] = test: Induction of ferroptosis in mouse CTLL-2 cells assessed as increase in intracellular lipid peroxidation level at 30 uM incubated for 16 hrs by flow cytometry; format: functional, cell-based
# CTLL-2 [16] = test: Induction of ferroptosis in mouse CTLL-2 cells assessed as increase in free Fe2+ level incubated for 16 hrs by FerroOrange staining based flow cytometry; format: functional, cell-based; details: dose 7.5-30 µM
# Mus musculus [17] = test: Anti-aplastic anemia activity in C57BL/6J mouse model of immune-mediated bone marrow failure assessed as CD4+ T cells at 15 mg/kg, IG qd treated for 12 days by flow cytometry (reference value: 12.93 %); format: functional; details: time 12 day
# CTLL-2 [18] = test: Induction of ferroptosis in mouse CTLL-2 cells assessed as increase in ROS level at 10 uM incubated for 45 mins in presence of CM4620; format: functional, cell-based
# CD8-positive T cell [19] = test: Inhibition of CD3/CD28-activated CD8-positive T cell activation in BALB/c mouse lymph nodes assessed as decrease in glucose consumption at 1 to 10 uM incubated for 72 hrs; format: functional, tissue-based; details: Lymph node, dose 1-10 µM
# Mus musculus [20] = test: Anti-aplastic anemia activity in C57BL/6J mouse model of immune-mediated bone marrow failure assessed as CD8+ T cells at 15 mg/kg, IG qd treated for 12 days by flow cytometry (reference value: 72.15 %); format: functional; details: time 12 day
# Mus musculus [21] = test: Anti-aplastic anemia activity in C57BL/6J mouse model of immune-mediated bone marrow failure assessed as decrease in CD8+ T cells at 5 to 15 mg/kg, IG qd treated for 12 days by flow cytometry; format: functional, organism-based; details: dose 5-15 mg/kg, time 12.0 day
# HepG2 = test: Cytotoxicity against human HepG2 cells assessed as inhibition of cell viability incubated for 72 hrs by CCK8 assay; format: functional, cell-based; details: HepG2, 72 h
# CTLL-2 [22] = test: Induction of ferroptosis in IL-2-stimulated mouse CTLL-2 cells assessed as increase in pERK level at 30 uM incubated for 6 hrs followed by Fer-1 addition measured after 10 hrs by Western blot analysis; format: functional, cell-based; details: time 16.0 hrs
# Mus musculus [23] = test: Anti-aplastic anemia activity in C57BL/6J mouse model of immune-mediated bone marrow failure assessed as increase in white blood cells treated intragastrically once daily for 21 days; format: functional, organism-based; details: dose 5-15 mg/kg, route ig, time 21.0 day
# Mus musculus [24] = test: Anti-aplastic anemia activity in C57BL/6J mouse model of immune-mediated bone marrow failure assessed as reduction in cytotoxic T lymphocytes accumulation at 5 to 15 mg/kg, IG qd treated for 12 days; format: functional, organism-based; details: dose 5-15 mg/kg, time 12.0 day
# CD8-positive T cell [25] = test: Inhibition of CD3/CD28-activated CD8-positive T cell proliferation in BALB/c mouse lymph nodes incubated for 72 hrs by CFSE staining based flow cytometry; format: functional, tissue-based; details: Lymph node, dose 1-10 µM
# CTLL-2 [26] = test: Induction of ferroptosis in mouse CTLL-2 cells assessed as increase in pERK level at 7.5 to 30 uM incubated for 16 hrs by Western blot analysis; format: functional, cell-based; details: dose 7.5-30 µM
# Mus musculus [27] = test: Anti-aplastic anemia activity in C57BL/6J mouse model of immune-mediated bone marrow failure assessed as CD4+ T cells at 10 mg/kg, IG qd treated for 12 days by flow cytometry (reference value: 12.93 %); format: functional; details: time 12 day
# CTLL-2 [28] = test: Induction of ferroptosis in IL-2-stimulated mouse CTLL-2 cells assessed as increase in ROS level at 30 uM incubated for 6 hrs followed by Fer-1 addition measured after 10 hrs by DCFH-DA staining based flow cytometry; format: functional, cell-based; details: time 16.0 hrs
# [29] = Acute toxicity in 12 hr-fasted KM mouse assessed as maximum tolerable dose administered orally as single dose measured for 14 days; details: in vivo, route po, time 14 day
# Mus musculus [30] = test: Anti-aplastic anemia activity in C57BL/6J mouse model of immune-mediated bone marrow failure assessed as increase in hemoglobin level treated intragastrically once daily for 21 days; format: functional, organism-based; details: dose 5-15 mg/kg, route ig, time 21.0 day
smiles,measurement,setting,value
COC1=C[C@@H]2[C@@H]3Cc4c(COC(=O)/C=C/c5ccccc5)cc(OC)c(OC(=O)/C=C/c5ccccc5)c4[C@]2(CCN3C)CC1=O,Drug metabolism,[1],metabolite_detected
same,Drug metabolism,[2],metabolite_detected
same,Stability,[3],Unstable
same,Drug metabolism,[4],metabolite_detected
same,Drug metabolism,[5],metabolite_detected
same,Drug metabolism,[6],metabolite_detected
same,bioavailability,[7],18%
same,Stability,[8],Unstable
same,Drug metabolism,[9],metabolite_detected
same,Activity,Mus musculus [10],Active
same,Drug metabolism,[11],metabolite_detected
same,Drug metabolism,[12],metabolite_detected
same,Drug metabolism,[13],metabolite_detected
same,Drug metabolism,[14],metabolite_detected
COC1=C[C@@H]2[C@@H]3Cc4c(CO)cc(OC)c(OC(=O)/C=C/c5ccccc5)c4[C@]2(CCN3C)CC1=O,Activity,IEC-6,Not active; Elevation Was Smaller Than In Mouse Ctll-2 Cells
same,Activity,CTLL-2 [15],Active
same,Activity,CTLL-2 [16],Dose-dependent-effect
same,Activity,Mus musculus [17],37.87%
same,Activity,CTLL-2 [18],inactive
same,inhibition,CD8-positive T cell [19],Active
same,Activity,Mus musculus [20],35.23%
same,bioavailability,[7],59.2%
same,Activity,Mus musculus [21],Active
same,IC50,HepG2,492 µM
same,Activity,CTLL-2 [22],inactive
same,Activity,Mus musculus [10],Active; All Mice Survived
same,Activity,Mus musculus [23],Dose-dependent-effect
same,Activity,Mus musculus [24],Active
same,inhibition,CD8-positive T cell [25],Dose-dependent-effect
same,Activity,CTLL-2 [26],Active
same,Activity,Mus musculus [27],21.08%
same,Activity,CTLL-2 [28],inactive
same,MTD at 336 h,[29],> 10000 mg/kg
same,Activity,Mus musculus [30],Dose-dependent-effect
